Experimental findings from patent US9388208B2, “Pyrrolo[1,2-f][1,2,4]triazines useful for treating respiratory syncitial virus infections” (Gilead Sciences, Inc., priority 2013, dated 2016) are described below.

The EC50 is the midpoint of the concentration-response curve. By CC50 is commonly meant the concentration at which the toxic effect on the cells reaches its halfway point. High values mean better tolerance by the cells, low ones harm at low concentration.

Read-outs that look alike come from different tables or passages of the source. Where only a bound is given, the exact number is not on record here.

Data set [1] concerns RSV strain A2. Kind of data set: Anti-RSV activity, infectious cytopathic cell protection assay in HEp-2 cells. Type of data set: cell-based, Respiratory Syncytial Virus (RSV). The protocol: Antiviral activity against RSV is determined using an infectious cytopathic cell protection assay in HEp-2 cells. In this assay, compounds inhibiting viral infection and/or replication produce a cytoprotective effect against the virus-induced cell killing that can be quantified using a cell viability reagent. The techniques used here are novel adaptations of methods described in published literature (Chapman et al., Antimicrob Agents Chemother. 2007, 51(9):3346-53.)
HEp-2 cells are obtained from ATCC (Manassas, VI) and maintained in MEM media supplemented with 10% fetal bovine serum and penicillin/streptomycin. Cells are passaged twice a week and kept at subconfluent stage. Commercial stock of RSV strain A2 (Advanced Biotechnologies, Columbia, Md.) is titered before compound testing to determine the appropriate dilution of the virus stock that generates desirable cytopathic effect in HEp-2 cells.
For antiviral tests, HEp-2 cells are grown in large cell culture flasks to near confluency but not fully so. The compounds to be tested are prediluted in DMSO in 384-well compound dilution plates, either in an 8 or 40 sample per plate standardized dose response format. 3-fold serial dilution increments of each test compound are prepared in the plates and test samples are transferred via acoustic transfer apparatus (Echo, Labcyte) at 100 nl per well into cell culture assay 384-well plates. Each compound dilution is transferred in single or quadruplicate samples into dry assay plates, which are stored until assay is ready to go. The positive and negative controls are laid out in opposite on ends of the plate in vertical blocks (1 column).
Subsequently, an infectious mixture is prepared using an appropriate dilution of virus stock previously determined by titration with cells at a density of 50,000/ml and 20 uL/well is added to test plates w/compounds via automation (uFlow, Biotek). Each plate includes negative and positive controls (16 replicates each) to create 0% and 100% virus inhibition standards, respectively. Following the infection with RSV, testing plates are incubated for 4 days in a 37° C. cell culture incubator. After the incubation, a cell viability reagent, Cell TiterGlo (Promega, Madison, Wis.) is added to the assay plates, which are incubated briefly, and a luminescent readout is measured (Envision, Perkin Elmer) in all the assay plates. The RSV-induced cytopathic effect, percentage inhibition, is determined from the levels of remaining cell viability. These numbers are calculated for each tested concentration relative to the 0% and 100% inhibition controls, and the EC50 value for each compound is determined by non-linear regression as a concentration inhibiting the RSV-induced cytopathic effect by 50%. Various potent anti-RSV tool compounds are used as positive controls for antiviral activity.
On the technique in general: Protection from cytopathic effect is a common read-out in antiviral testing.

Data set [2] has as its system HEp-2 cells. As to the kind of experiment: Cytotoxicity assay in HEp-2 cells. The settings on record: uninfected HEp-2 cells, 4 days, CellTiter Glo. Type of data set: cell-based. As for the experimental part: (§1) Cytotoxicity of tested compounds is determined in uninfected HEp-2 cells in parallel with the antiviral activity using the cell viability reagent in a similar fashion as described before for other cell types (Cihlar et al., Antimicrob Agents Chemother. 2008, 52(2):655-65.). The same protocol as for the determination of antiviral activity is used for the measurement of compound cytotoxicity except that the cells are not infected with RSV. Instead, an uninfected cell mixture at the same density is added at 20 ul/well to plates containing prediluted compounds, also at 100 nl/sample. Assay plates are then incubated for 4 days followed by a cell viability test using the same CellTiter Glo reagent addition and measurement of luminescent readouts. Untreated cell and cells treated at 2 uM puromycin (Sigma, St. Louis, Mo.) serve as 100% and 0% cell viability control, respectively. The percent of cell viability is calculated for each tested compound concentration relative to the 0% and 100% controls and the CC50 value is determined by non-linear regression as a compound concentration reducing the cell viability by 50%.
Background: ATP-based viability assays read luminescence as a measure of living cells.

Data set [3] deals with MT-4 cells. Kind of data set: Cytotoxicity assay in MT-4 cells. The class given is cell-based. The settings on record: 5 days, Cell-Titer Glo. The protocol:
(§2) The MT-4 cell line was obtained from the NIH AIDS Research and Reference Reagent Program (Germantown, Md.) and cultured in RPMI-1640 medium (Irvine Scientific, Santa Ana, Calif., Cat #9160) supplemented with 10% FBS, 100 units/mL penicillin, 100 units/mL streptomycin, and 2 mM L-Glutamine. The MT-4 cells were passaged twice per week to maintain cell densities below 0.6×10^6 cells/mL. Complete RPMI-1640 media containing 100× concentrations of 3-fold serially diluted compound, ranging from 26 nM to 530 μM, were stamped in quadruplicate into black 384-well plates. After compound addition, 2×10^3 MT-4 cells were added to each well using a MicroFlo liquid dispenser (BioTek, Winooski, Vt.) and the cells were cultured for 5 days at 37° C. in a 5% CO2 incubator. Following the incubation the cells were allowed to equilibrate to 25° C. and cell viability was determined by adding 25 μL of Cell-Titer Glo viability reagent. The mixture was incubated for 10 minutes at 25° C., and the luminescence signal was quantified on a Victor Luminescence plate reader. The CC50 value is defined as the concentration of compound that reduces cell viability by 50% as determined by the Cell-Titer Glo signal. The data were analyzed using Pipeline Pilot Plate Data Analytics Collection software (Version 7.0, Accelrys, San Diego, Calif.). CC50 values were calculated from a non-linear regression analysis using a 4-parameter sigmoidal dose-response equation: Y=Bottom+(Top−Bottom)/(1+10^[(Log CC50−X)*HillSlope]) where the Top and Bottom were fixed at 100% and 0% cell viability, respectively. CC50 values were calculated as the average±standard deviation of 3 independent experiments.

Data set [4] in a line: Cytotoxicity assay in HEp-2 cells. The class given is cell-based. The settings on record: human, uninfected HEp-2 cells, CellTiter Glo. The protocol: as §1
A short description of data set [5]: Cytotoxicity assay in MT-4 cells. The class given is cell-based. The settings on record: human, Cell-Titer Glo. As for the experimental part: as §2
The mark [6] stands for this setting: human respiratory syncytial virus, 96 h, HEp-2 cells infected with RSV A2, 4 days, Cell TiterGlo, read-out: EC50.

In data set [1] (human respiratory syncytial virus, HEp-2, 96 h), `CC(C)(C)C(=O)SCCOP(=O)(OCCSC(=O)C(C)(C)C)OC[C@@]1(C#N)O[C@@H](c2ccc3c(N)ncnn23)[C@H](O)[C@@H]1O` [Example 10, S,S′-2,2′-((((2R,3S,4R,5S)-5-(4-aminopyrrolo[1,2-f][1,2,4]triazin-7-yl)-2-cyano-3,4-dihydroxytetrahydrofuran-2-yl)methoxy)phosphoryl)bis(oxy)bis(ethane-2,1-diyl)bis(2,2-dimethylpropanethioate)] gave an EC50 of 1 µM. Besides, the CC50 in data set [2] was 39 µM; in data set [3], 7.3 µM.
For the compound `Nc1ncnn2c([C@@H]3O[C@@](CO)(CCl)[C@@H](O)[C@H]3O)ccc12` [Example 26, (2R,3S,4R,5S)-5-(4-aminopyrrolo[2,1-f][1,2,4]triazin-7-yl)-2-(chloromethyl)-2-(hydroxymethyl)tetrahydrofuran-3,4-diol], the concentration for a half-maximal effect (EC50) in data set [1] (setting [6]) was above 50 µM. The compound further came in with a CC50 at 4 days in data set [4] of 42 µM. In data set [5], this compound had a CC50 at 5 days above 53 µM. For the same compound, the CC50 in data set [3] is above 57 µM.
Turning to `[N-]=[N+]=N[C@]1(CO)O[C@@H](c2ccc3c(N)nc(F)nn23)[C@H](F)[C@@H]1O` [Example 22, (2R,3R,4R,5S)-5-(4-amino-2-fluoropyrrolo[2,1-f][1,2,4]triazin-7-yl)-2-azido-4-fluoro-2-(hydroxymethyl)tetrahydrofuran-3-ol], the EC50 in data set [1] (setting [6]) was 0.57 µM; in data set [1] (human respiratory syncytial virus, HEp-2 anti-RSV activity, read-out: EC50 (HEp-2 anti-RSV activity)), below 100 µM. This compound also showed a CC50 at 4 days in data set [4] above 100 µM. Moreover, in data set [3], it took 32 µM to reach half-maximal cytotoxicity (CC50).
Take `N#C[C@]1(CO)O[C@@H](c2ccc3c(N)ncnn23)[C@H](O)[C@@H]1O` [Example 1, (2R,3S,4R,5S)-5-(4-aminopyrrolo[1,2-f][1,2,4]triazin-7-yl)-3,4-dihydroxy-2-(hydroxymethyl)tetrahydrofuran-2-carbonitrile]: the EC50 in data set [1] (HEp-2 cells infected with RSV A2, 4 days, Cell TiterGlo, read-out: EC50) came out at 7.3 µM. Besides, the CC50 in data set [2] is above 50 µM; in data set [3], above 53 µM.
